US10144732B2 (BIOGEN MA INC., priority 2014, dated 2018)
Structures can show the parent of a compound that is named as a salt.

Target: T1, Human ATX protein (Homo sapiens, UniProt Q13822)
T1 construct: made in house
Test: ATX biochemical assay (FRET, FS-3 substrate)
Details: FRET assay, FS-3 2 μM, ATX 1.0 μg/mL, 30 minutes preincubation, 2 hours reaction at room temperature; read-out: IC50
Summary of the method: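 In-house human ATX (1.0 μg/mL final) was preincubated with compound for 30 min at room temperature in Tris buffer pH 7.4 with 1 mg/mL fatty acid free-BSA. FS-3 substrate (2 μM final) was then hydrolysed for 2 hours at room temperature, protected from light, and read as fluorescence at ex 485/em 538 nm.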

Row | SMILES | IC50
1 | O=C(CC1CC(N2CCOCC2)C1)N1CCc2c(C(F)(F)F)nn(Cc3ccc(F)cc3)c2C1 (stereo not drawn) [Example 22-5, 1-(1-(4-Fluorobenzyl)-3-(trifluoromethyl)-4,5-dihydro-1H-pyrazolo[3,4-c]pyridin-6(7H)-yl)-2-(3-morpholinocyclobutyl)ethanone TFA salt] | ≤ 100 nM
2 | O=C(CC1CCC(N2CCC2)CC1)N1CCc2c(C(F)(F)F)nn(Cc3ccc(F)cc3)c2C1 (stereo not drawn) [Example 22-6, 2-(4-(Azetidin-1-yl)cyclohexyl)-1-(1-(4-fluorobenzyl)-3-(trifluoromethyl)-4,5-dihydro-1H-pyrazolo[3,4-c]pyridin-6(7H)-yl)ethanone TFA salt] | ≤ 100 nM
3 | O=C(C[C@H]1CC[C@@H](N2CC(F)(F)C2)CC1)N1CCc2c(C(F)(F)F)nn(Cc3ccc(F)cc3)c2C1 [Example 22-7, 2-(cis-4-(3,3-Difluoroazetidin-1-yl)cyclohexyl)-1-(1-(4-fluorobenzyl)-3-(trifluoromethyl)-4,5-dihydro-1H-pyrazolo[3,4-c]pyridin-6(7H)-yl)ethanone TFA salt] | ≤ 100 nM
4 | O=C(C[C@H]1CC[C@H](N2CC(F)(F)C2)CC1)N1CCc2c(C(F)(F)F)nn(Cc3ccc(F)cc3)c2C1 [Example 22-8, 2-(trans-4-(3,3-difluoroazetidin-1-yl)cyclohexyl)-1-(1-(4-fluorobenzyl)-3-(trifluoromethyl)-4,5-dihydro-1H-pyrazolo[3,4-c]pyridin-6(7H)-yl)ethanone TFA salt] | ≤ 100 nM
5 | O=C(CC1CCC(N2CCCC2)CC1)N1CCc2c(C(F)(F)F)nn(Cc3ccc(F)cc3)c2C1 (stereo not drawn) [Example 22-9, 1-(1-(4-Fluorobenzyl)-3-(trifluoromethyl)-4,5-dihydro-1H-pyrazolo[3,4-c]pyridin-6(7H)-yl)-2-(4-(pyrrolidin-1-yl)cyclohexyl)ethanone TFA salt] | ≤ 100 nM
6 | O=C(CC1CCC(N2CCOCC2)CC1)N1CCc2c(C(F)(F)F)nn(Cc3ccc(F)cc3)c2C1 (stereo not drawn) [Example 22-10, 1-(1-(4-Fluorobenzyl)-3-(trifluoromethyl)-4,5-dihydro-1H-pyrazolo[3,4-c]pyridin-6(7H)-yl)-2-(4-morpholinocyclohexyl)ethanone TFA salt] | ≤ 100 nM
